Drawing on ChEMBL document CHEMBL1909046, “DrugMatrix in vitro pharmacology data”, this text covers IC50 and Ki for 20 compounds.

Experiment [1] addresses Aldo-keto reductase family 1 member B1 (Rattus norvegicus, UniProt P07943). The format is tissue-based, Lens of camera-type eye.
Experiment [2] concerns the target D(1A) dopamine receptor (Homo sapiens, UniProt P21728). The experiment in a line: DRUGMATRIX: Dopamine D1 radioligand binding (ligand: [3H] SCH-23390). The settings on record: cho; Not Active = under 50% inhibition at 10 µM. The format is cell membranes, CHO, Membrane.
The target in experiment [3] is Beta-2 adrenergic receptor (Homo sapiens, UniProt P07550). The experiment can be described thus: DRUGMATRIX: Adrenergic beta2 radioligand binding (ligand: [3H] CGP-12177). The note with it: cho; Not Active = under 50% inhibition at 10 µM. It counts as cell membranes, CHO, Membrane.
Experiment [4] addresses D(3) dopamine receptor (Homo sapiens, UniProt P35462). The experiment can be described thus: DRUGMATRIX: Dopamine D3 radioligand binding (ligand: [3H] Spiperone). The format is cell membranes, CHO, Membrane. The note with it: cho.
Experiment [5] addresses T1, Endothelin-1 receptor (Homo sapiens, UniProt P25101).
T1 sequence (P25101 whole entry): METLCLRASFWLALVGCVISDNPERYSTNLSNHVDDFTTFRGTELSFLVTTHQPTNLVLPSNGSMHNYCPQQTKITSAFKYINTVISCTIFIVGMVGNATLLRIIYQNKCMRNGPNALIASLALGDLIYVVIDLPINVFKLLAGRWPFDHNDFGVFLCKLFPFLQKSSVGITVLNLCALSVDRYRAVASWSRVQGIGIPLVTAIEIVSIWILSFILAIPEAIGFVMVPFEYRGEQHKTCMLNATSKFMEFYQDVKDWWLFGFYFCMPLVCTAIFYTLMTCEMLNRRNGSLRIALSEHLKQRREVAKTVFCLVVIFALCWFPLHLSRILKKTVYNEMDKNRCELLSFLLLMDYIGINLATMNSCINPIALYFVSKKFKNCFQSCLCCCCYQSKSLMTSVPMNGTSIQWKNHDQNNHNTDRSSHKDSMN
It counts as cell membranes, Membrane. The note with it: cho-k1.

D(3) dopamine receptor, sequence (P35462 whole entry): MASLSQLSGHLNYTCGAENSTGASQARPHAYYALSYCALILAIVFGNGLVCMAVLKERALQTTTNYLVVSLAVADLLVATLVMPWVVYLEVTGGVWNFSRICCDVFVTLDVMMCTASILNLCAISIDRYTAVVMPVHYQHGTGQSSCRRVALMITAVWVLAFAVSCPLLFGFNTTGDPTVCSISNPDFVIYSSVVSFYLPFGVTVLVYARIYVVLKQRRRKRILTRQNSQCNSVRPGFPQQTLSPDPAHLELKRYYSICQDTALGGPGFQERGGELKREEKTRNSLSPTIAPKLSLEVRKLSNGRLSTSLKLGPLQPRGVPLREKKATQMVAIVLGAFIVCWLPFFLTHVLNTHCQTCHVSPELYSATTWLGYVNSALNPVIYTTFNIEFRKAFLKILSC
D(1A) dopamine receptor, sequence (P21728 whole entry): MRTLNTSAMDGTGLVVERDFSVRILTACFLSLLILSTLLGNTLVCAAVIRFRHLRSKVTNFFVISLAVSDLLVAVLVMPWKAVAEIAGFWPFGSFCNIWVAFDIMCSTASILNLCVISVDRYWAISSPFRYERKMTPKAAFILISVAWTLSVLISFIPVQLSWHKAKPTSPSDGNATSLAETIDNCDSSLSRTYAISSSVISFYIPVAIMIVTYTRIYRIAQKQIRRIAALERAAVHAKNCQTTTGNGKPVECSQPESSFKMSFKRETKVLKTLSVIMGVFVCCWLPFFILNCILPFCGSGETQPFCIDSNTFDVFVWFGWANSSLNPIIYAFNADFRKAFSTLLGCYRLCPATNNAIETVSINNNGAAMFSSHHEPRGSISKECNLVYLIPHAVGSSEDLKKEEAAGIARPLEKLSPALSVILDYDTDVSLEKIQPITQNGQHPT

`COC(=O)Nc1nc2ccc(C(=O)c3cccs3)cc2[nH]1` [NOCODAZOLE]: the IC50 result in experiment [1], in experiment [2], in experiment [3], in experiment [4] and in experiment [5] was “Not Active” in each case.

With `C#CC1(O)CC[C@H]2[C@@H]3CCC4=CC(=O)CC[C@@H]4[C@H]3CC[C@@]21CC` (stereo not given in full) [NORGESTREL], the IC50 result in experiment [1], in experiment [2], in experiment [3], in experiment [4] and in experiment [5] was “Not Active” each time.

In the case of `COC(=O)Nc1nc2ccc([S+]([O-])c3ccccc3)cc2[nH]1` (stereo not given) [OXFENDAZOLE], the IC50 entry in experiment [1], in experiment [2], in experiment [3], in experiment [4] and in experiment [5] was “Not Active” in each case.

For `CC(=O)O[C@H]1C(=O)[C@@]2(C)[C@H]([C@H](OC(=O)c3ccccc3)[C@]3(O)C[C@H](OC(=O)[C@H](O)[C@@H](NC(=O)c4ccccc4)c4ccccc4)C(C)=C1C3(C)C)[C@]1(OC(C)=O)CO[C@@H]1C[C@@H]2O` [PACLITAXEL], the half-inhibitory concentration (IC50) result in experiment [1], in experiment [2], in experiment [3], in experiment [4] and in experiment [5] was “Not Active” in each case.

As for `C[n+]1ccc(-c2cc[n+](C)cc2)cc1.[Cl-].[Cl-]` [PARAQUAT DICHLORIDE], the half-maximal inhibitory concentration (IC50) entry in experiment [1], in experiment [2], in experiment [3], in experiment [4] and in experiment [5] was “Not Active” each time.

Regarding `CCn1cc(C(=O)O)c(=O)c2cnc(N3CCCC3)nc21` [PIROMIDIC ACID], the IC50 result in experiment [1], in experiment [2], in experiment [3], in experiment [4] and in experiment [5] was “Not Active” each time.

For the compound `C[n+]1ccccc1/C=N/O.[Cl-]` [PRALIDOXIME CHLORIDE], the IC50 result in experiment [1], in experiment [2], in experiment [3], in experiment [4] and in experiment [5] was “Not Active” each time.

Take `COc1cc2nc(N3CCN(C(=O)c4ccco4)CC3)nc(N)c2cc1OC` [PRAZOSIN]: the IC50 result in experiment [1], in experiment [2], in experiment [3], in experiment [4] and in experiment [5] was “Not Active” in each case.

In the case of `C[C@]12C=CC(=O)C=C1CC[C@@H]1[C@@H]2[C@@H](O)C[C@@]2(C)[C@H]1CC[C@]2(O)C(=O)CO` [PREDNISOLONE], the IC50 entry in experiment [1], in experiment [2], in experiment [3], in experiment [4] and in experiment [5] was “Not Active” in each case.

`CC(=O)[C@H]1[C@H](C#N)C[C@H]2[C@@H]3CC=C4C[C@@H](O)CC[C@]4(C)[C@H]3CC[C@@]21C` [PREGNENOLONE CARBONITRILE]: the IC50 entry in experiment [1], in experiment [2], in experiment [3], in experiment [4] and in experiment [5] was “Not Active” each time.

Take `CCCN(CCC)S(=O)(=O)c1ccc(C(=O)O)cc1` [PROBENECID]: the IC50 result in experiment [1], in experiment [2], in experiment [3], in experiment [4] and in experiment [5] was “Not Active” in each case.

With `CCCOc1ccc(C(=O)OCCN(CC)CC)cc1N` [PROPARACAINE], the IC50 entry in experiment [1], in experiment [2], in experiment [3], in experiment [4] and in experiment [5] was “Not Active” each time.

With `CC(C)c1cccc(C(C)C)c1O` [PROPOFOL], the IC50 result in experiment [1], in experiment [2], in experiment [3], in experiment [4] and in experiment [5] was “Not Active” in each case.

For `C[C@@H]1O[C@@H](O[C@@H]2C=C3CC[C@@H]4[C@H](CC[C@]5(C)[C@@H](c6ccc(=O)oc6)CC[C@]45O)[C@@]3(C)CC2)[C@H](O)[C@H](O)[C@H]1O` [PROSCILLARIDIN], the IC50 result in experiment [1], in experiment [2], in experiment [3], in experiment [4] and in experiment [5] was “Not Active” in each case.

As for `Oc1cccc(O)c1O` [PYROGALLOL], the IC50 entry in experiment [1], in experiment [2], in experiment [3], in experiment [4] and in experiment [5] was “Not Active” throughout.

For the compound AURANOFIN, the IC50 result in experiment [1] is “Not Active”; in experiment [2], “Not Active”; in experiment [3], “Not Active”; in experiment [4] (read-out: IC50) it was 659 nM; in experiment [5], “Not Active”. The Ki result in experiment [1] is “Not Active”; in experiment [2], “Not Active”; in experiment [3], “Not Active”; in experiment [4] (read-out: Ki), 224 nM; in experiment [5], “Not Active”.

As to GADOPENTETATE DIMEGLUMINE, the IC50 entry in experiment [1], in experiment [2], in experiment [3], in experiment [4] and in experiment [5] was “Not Active” throughout. Further, the inhibition constant (Ki) result in experiment [1], in experiment [2], in experiment [3], in experiment [4] and in experiment [5] was “Not Active” each time.

In the case of GENTAMICIN, the half-maximal inhibitory concentration (IC50) entry in experiment [1], in experiment [2], in experiment [3], in experiment [4] and in experiment [5] was “Not Active” throughout. Further, the inhibition constant Ki result in experiment [1], in experiment [2], in experiment [3], in experiment [4] and in experiment [5] was “Not Active” throughout.

Take GRAMICIDIN: the 50% inhibitory concentration (IC50) entry was “Not Active” in experiment [1]; “Not Active” in experiment [2]; “Not Active” in experiment [3]; “Not Active” in experiment [4]; 2980 nM in experiment [5] (read-out: IC50). Besides, the Ki entry in experiment [1] is “Not Active”; in experiment [2], “Not Active”; in experiment [3], “Not Active”; in experiment [4] it was “Not Active”; in experiment [5] (read-out: Ki), 1840 nM.

With NYSTATIN, the IC50 entry in experiment [1], in experiment [2], in experiment [3], in experiment [4] and in experiment [5] was “Not Active” in each case. Besides, the inhibition constant Ki entry in experiment [1], in experiment [2], in experiment [3], in experiment [4] and in experiment [5] was “Not Active” throughout.

For orientation: IC50 means the concentration that gives 50% inhibition. As a reminder, the Ki is a measure of affinity in units of concentration, obtained from inhibition or displacement.
